Common to all, as to type: functional
For test [1], the system named is Escherichia coli. Briefly: Antibacterial activity against gram-negative wild type Escherichia coli MG1655 by CLSI broth microdilution method.
In another test the target is Bacterial 70S ribosome. The experiment in a line: Inhibition of protein synthesis in Escherichia coli ribosomes incubated for 1 hr at 37 degC by SDS-PAGE and Gaussia luciferase reporter gene assay.
A further test has as its system Staphylococcus aureus. Briefly: Antibacterial activity against methicillin-susceptible Staphylococcus aureus ATCC 29213 by CLSI broth microdilution method.
Test [2] has as its system Escherichia coli. Briefly: Efflux index, ratio of MIC for wild type Escherichia coli MG1655 to MIC for Escherichia coli MG1655 expressing AcrAB-TolC efflux pump deletion mutant.
The subject of test [3] is Escherichia coli. Briefly: Permeability index, ratio of MIC for wild type Escherichia coli MG1655 to MIC for Escherichia coli MG1655 membrane permeabilized mutant in presence of polymyxinnonapeptide.
The subject of test [4] is Escherichia coli. The experiment in a line: Antibacterial activity against gram-negative Escherichia coli MG1655 expressing AcrAB-TolC efflux pump deletion mutant by CLSI broth microdilution method.
Test [5] concerns Escherichia coli. The experiment in a line: Antibacterial activity against gram-negative Escherichia coli MG1655 membrane permeabilized mutant in presence of polymyxinnonapeptide by CLSI broth microdilution method.

pIC50: −log10 of the molar value. In brackets after ≈: the same amount, converted by molar mass.

As to `NCc1ncc(-c2ccc(N3C[C@H](CO)OC3=O)cc2F)cc1O`, the MIC was determined as 51 µg/mL (≈ 153 µM) in the test with Escherichia coli [1] and 20 µg/mL (≈ 60 µM) in the test on Staphylococcus aureus. The compound also showed a pIC50 at Bacterial 70S ribosome of 3.72. The Ratio in the test on Escherichia coli [2] and in the test on Escherichia coli [3] was 1.6 throughout.
With `CCOc1cnnn1C[C@H]1CN(c2ccc(-c3ccc(CN)cc3)c(F)c2)C(=O)O1`, the minimal inhibitory concentration (MIC) against Escherichia coli [1] is greater than 256 µg/mL; against Escherichia coli [4] it was 128 µg/mL (≈ 311 µM); in the test with Staphylococcus aureus, 32 µg/mL (≈ 77.8 µM); with Escherichia coli [5], 256 µg/mL. Besides, the Ratio is recorded as greater than 2 with Escherichia coli [2] and greater than 1 with Escherichia coli [3].
Consider `NCc1ccc(-c2ccc(N3C[C@H](Cn4cc(CN)nn4)OC3=O)cc2F)cc1`, for which the MIC against Escherichia coli [1] was greater than 256 µg/mL; in the test with Escherichia coli [4], 128 µg/mL (≈ 323 µM); against Staphylococcus aureus, 8 µg/mL (≈ 20.2 µM); with Escherichia coli [5], 128 µg/mL. The Ratio in the test with Escherichia coli [2] and in the test with Escherichia coli [3] was greater than 2 each time.
`CC(=O)NC[C@H]1CN(c2ccc(N3CCOCC3)c(F)c2)C(=O)O1` [LINEZOLID]: the MIC with Escherichia coli [1] turned out to be 130 µg/mL (≈ 385 µM); in the test on Escherichia coli [4] it was 11 µg/mL (≈ 32.6 µM); in the test on Staphylococcus aureus it was 3.1 µg/mL (≈ 9.19 µM); in the test with Escherichia coli [5] it was 36 µg/mL. In addition, the pIC50 on Bacterial 70S ribosome was 4.62. The Ratio in the test on Escherichia coli [2] amounted to 12; in the test on Escherichia coli [3], 3.6.
Turning to `N/C(=N\O)c1ccc(-c2ccc(N3C[C@H](CNC(=O)C(F)(F)F)OC3=O)cc2F)cc1`, the MIC with Escherichia coli [1] is greater than 256 µg/mL; in the test on Escherichia coli [4], less than 2 µg/mL; against Staphylococcus aureus, less than 0.5 µg/mL; with Escherichia coli [5], 16 µg/mL. For the same compound, the Ratio is recorded as greater than 256 in the test with Escherichia coli [2] and greater than 16 in the test with Escherichia coli [3].
Regarding `CC(=O)NC[C@H]1CN(c2ccc(-c3ccc(C#N)c(O)c3)c(F)c2)C(=O)O1`, the minimal inhibitory concentration (MIC) was greater than 256 µg/mL in the test with Escherichia coli [1], 32 µg/mL (≈ 86.6 µM) against Escherichia coli [4], 2 µg/mL (≈ 5.41 µM) with Staphylococcus aureus and 32 µg/mL in the test with Escherichia coli [5]. The Ratio in the test with Escherichia coli [2] and in the test with Escherichia coli [3] was greater than 8 throughout.
As to `NCc1ccc(-c2ccc(N3C[C@H](CNC(=O)C(F)F)OC3=O)cc2F)cc1`, the MIC came out at 128 µg/mL (≈ 325 µM) against Escherichia coli [1], 4 µg/mL (≈ 10.2 µM) in the test on Escherichia coli [4], 2 µg/mL (≈ 5.08 µM) against Staphylococcus aureus and 32 µg/mL with Escherichia coli [5]. Further, the results for the Ratio in the test on Escherichia coli [2] and with Escherichia coli [3] were 32 and 4, respectively.
Take `O=C1CCc2cc(-c3ccc(N4C[C@H](CO)OC4=O)cc3F)cc(O)c21`: the MIC was greater than 256 µg/mL against Escherichia coli [1], 8 µg/mL (≈ 22.4 µM) in the test with Escherichia coli [4], 1 µg/mL (≈ 2.8 µM) against Staphylococcus aureus and 64 µg/mL in the test with Escherichia coli [5]. The Ratio in the test with Escherichia coli [2] is reported as 8; in the test with Escherichia coli [3] it was greater than 32.
`O=C1O[C@@H](CO)CN1c1ccc(-c2cc(O)ccc2F)cc1`: the MIC in the test with Escherichia coli [1] is greater than 256 µg/mL; against Escherichia coli [4], 16 µg/mL (≈ 52.8 µM); in the test with Staphylococcus aureus, 1 µg/mL (≈ 3.3 µM); with Escherichia coli [5], 32 µg/mL. The values for the Ratio in the test on Escherichia coli [2] and with Escherichia coli [3] were greater than 16 and greater than 8, respectively.

Source of the values: ChEMBL document CHEMBL4177666, “Compound design guidelines for evading the efflux and permeation barriers of Escherichia coli with the oxazolidinone class of antibacterials: Test case for a general approach to improving whole cell Gram-negative activity” (Bioorg Med Chem Lett, 2017).
